Assay results reported in paper PMC7508162 (Frontiers in Pharmacology, 2020).

Molecular target: T1, human CD73 (Homo sapiens, UniProt P21589)
T1 construct: the catalytic domains of the enzymes were amplified and sub-cloned into the expression vector pACGP67 A/B; 9xHis (C); made in house; host or cells: Sf9 insect cells (baculovirus, pACGP67 A/B)
T1 sequence (P21589 27-549 limits assumed): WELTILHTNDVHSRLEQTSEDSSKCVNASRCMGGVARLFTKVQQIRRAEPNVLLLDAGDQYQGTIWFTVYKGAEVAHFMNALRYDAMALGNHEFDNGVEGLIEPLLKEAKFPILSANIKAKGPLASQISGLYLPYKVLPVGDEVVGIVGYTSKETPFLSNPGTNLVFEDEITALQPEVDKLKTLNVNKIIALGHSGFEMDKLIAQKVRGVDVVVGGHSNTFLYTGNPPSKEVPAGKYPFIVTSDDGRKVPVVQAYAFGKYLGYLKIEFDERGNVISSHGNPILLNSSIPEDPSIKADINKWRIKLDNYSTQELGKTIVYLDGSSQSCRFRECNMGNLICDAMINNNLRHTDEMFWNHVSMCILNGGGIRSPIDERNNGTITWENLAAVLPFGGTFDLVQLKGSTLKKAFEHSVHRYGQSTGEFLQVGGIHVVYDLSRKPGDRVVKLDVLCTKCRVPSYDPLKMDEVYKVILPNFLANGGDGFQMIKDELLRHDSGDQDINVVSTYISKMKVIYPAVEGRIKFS
Assay: CD73 assay with [2,8-3H]AMP as radioactive substrate
Assay type: biochemical
Details: for Ki: soluble human CD73, 5.0 µM [2,8-3H]AMP, read-out: Ki ± SEM
Description: The cDNAs of the human enzymes NPP1, NPP3, NPP5, CD38 and CD73 (Genbank accession no. NM_006258, NM_005021, NM_021572, NM_ 001775, and NM_002526, respectively) were obtained from Origene (Rockville, USA). Soluble enzymes were produced as previously reported with some modifications ([Lee et al., 2015]; [Junker et al., 2019]). Briefly, the catalytic domains of the enzymes were amplified and sub-cloned into the expression vector pACGP67 A/B modified with the addition of 9 x histidine tag (His-tag) at the C-terminus (except for NPP1). The plasmids were transfected in Sf9 insect cells using Cellfectin™ II Reagent (Thermo Fisher Scientific, MA, USA) and ProEasy™ baculovirus linearized DNA (Cat.#A10S, AB Vector, LLC). Protein expression was conducted for 48 h at 27°C. The signal peptide sequence of the expression vector shuttled the proteins into the supernatant. The supernatant medium was collected, and the enzymes were purified using HisPur™ Ni^2+-NTA spin columns according to the manufacturer’s protocol. The protein concentration was determined by the method previously described by [Lowry et al. (1951)].
The assay was performed as previously described ([Freundlieb et al., 2014]). Briefly, it contained with 0.09 µg/ml of soluble human CD73 recombinantly expressed in Sf9 insect cells as described ([Junker et al., 2019]), the respective test compound, and 5.0 µM [2,8-^3H]AMP (specific activity 7.4 x 108 Bq/mmol, 20 mCi/mmol) as radioactive substrate in assay buffer consisting of 25 mM Tris buffer, 140 mM NaCl, 25 mM NaH2PO4 pH 7.4. The enzymatic reaction was performed for 25 min at 37°C in a shaking water bath. Then, 500 µl of cold precipitation buffer (100 mM LaCl3, 100 mM sodium acetate, pH 4.0) were added to precipitate free phosphate and unconverted [2,8-^3H]AMP. After 30 min on ice, filtration through GF/B glass fiber filters using a cell harvester was used to separate AMP from adenosine. After washing each reaction vial three times with 400 µl of cold (4°C) demineralized water, aliquots of the filtrate were taken, and 5 ml of scintillation cocktail (ULTIMA Gold XR9) was added. The amount of formed adenosine was quantified by liquid scintillation counting (TRICARB 2900 TR, Packard/PerkinElmer).

Structure (SMILES) | fold higher potency at CD73 compared to CD39 (CD73 Ki vs CD39 Ki) | Ki
CCCCNc1nc2c(NC)ncnc2n1[C@@H]1O[C@H](COP(=O)(O)OP(=O)(O)C(Br)(Br)P(=O)(O)O)[C@@H](O)[C@H]1O [Compound 33, (Dibromo((((((2R,3S,4R,5R)-5-(8-(butylamino)-6-(methylamino)-9H-purin-9-yl)-3,4-dihydroxy-tetrahydrofuran-2-yl)methoxy)(hydroxy)phosphoryl)oxy)-(hydroxy)phosphoryl)methyl)-phosphonic Acid] | 8 fold | 185 ± 74 nM
CCCCSc1nc2c(N)ncnc2n1[C@@H]1O[C@H](COP(=O)(O)OP(=O)(O)C(Br)(Br)P(=O)(O)O)[C@@H](O)[C@H]1O [Compound 31, (((((((2R,3S,4R,5R)-5-(6-Amino-8-(butylthio)-9H-purin-9-yl)-3,4-dihydroxytetrahydrofuran-2-yl)methoxy)(hydroxy)-phosphoryl)oxy)(hydroxy)phosphoryl)dibromomethyl)-phosphonic Acid] | – | 831 ± 274 nM
CCN(CC)c1ncnc2c1ncn2[C@@H]1O[C@H](COP(=O)(O)OP(=O)(O)C(Br)(Br)P(=O)(O)O)[C@@H](O)[C@H]1O [ARL67156, (Dibromo((((((2R,3S,4R,5R)-5-(6-(diethylamino)-9H-purin-9-yl)-3,4-dihydroxytetrahydrofuran-2-yl)methoxy)-(hydroxy)-phosphoryl)oxy)(hydroxy)phosphoryl)methyl)-phosphonic Acid, reference compound] | – | 451 ± 121 nM
